Source: US20210395256A1, “TYROSINE KINASE INHIBITORS, COMPOSITIONS AND METHODS THERE OF” (Betta Pharmaceuticals Co., Ltd., priority 2018, published 2021)

Target: TrkA kinase (Homo sapiens, UniProt P04629)
Test: TrkA kinase assay (mobility shift assay)
Assay type: biochemical
Conditions: class symbols; read-out: Trk A Kinase IC50
Method: Example 201 TrkA Kinase Assay
Mobility shift assay was used to determine the inhibitory activity of compounds against TrkA kinase. Assay procedures are as follows:
1× Kinase base buffer (50 mM HEPES, pH 7.5; 0.0015% Brij-35)
Stop buffer (100 mM HEPES, pH 7.5; 0.015% Brij-35; 0.2% Coating Reagent #3; 50 mM EDTA)
1) Dilute the compound to 50× of the final desired highest inhibitor concentration in reaction by 100% DMSO. Transfer 100 μl of this compound dilution to a well in a 96-well plate.
2) For all compounds, transfer the compound in tubes to one well on 96-well storage plate and serially dilute the compound by transferring 30 μl to 60 μl of 100% DMSO in the next well and so forth for a total of 10 concentrations.
3) Add 100 μl of 100% DMSO to two empty wells for no compound control and no enzyme control in the same 96-well plate. Mark the plate as source plate.
4) Prepare intermediate plate
Transfer 10 μl of compound from source plate to a new 96-well plate as the intermediate plate
Add 90 µl of 1× kinase buffer to each well of the intermediate plate.
Mix the compounds in intermediate plate for 10 min on shaker.
1) Transfer 5 μl of each well from the 96-well intermediate plate to a 384-well plate in duplicates. For example, A1 of the 96-well plate is transferred to A1 and A2 of the 384-well plate. A2 of the 96-well plate is transferred to A3 and A4 of the 384-well plate, and so on.
1) Prepare 2.5× enzyme solution
Add kinase in 1× kinase base buffer.
2) Prepare 2.5× peptide solution Add FAM-labeled peptide and ATP in the 1× kinase base buffer.
3) Assay plate already contains 5 μl of compound in 10% DMSO.
4) Transfer 2.5× enzyme solution to the assay plate
Add 10 μl of 2.5× enzyme solution to each well of the 384-well assay plate.
5) Incubate at room temperature for 10 min.
6) Transfer 2.5× peptide solution to the assay plate
Add 10 μl of 2.5× peptide solution to each well of the 384-well assay plate.
Kinase reaction conditions are shown as Table 11:
7) Kinase reaction and stop
Incubate at 28° C. for specified period of time.
Add 25 μl of stop buffer to stop reaction.
1) Copy conversion data from Caliper program.
2) Convert conversion values to inhibition values.
Percent inhibition=(max-conversion)/(max-min)*100.
“max” stands for DMSO control; “min” stands for low control.
3) Fit the data in XLFit excel add-in version 5.4.0.8 to obtain IC50 values.
Equation used is: Y=Bottom+(Top-Bottom)/(1+(IC50/X)^HillSlope)

Chain of TrkA kinase (P04629 33-796): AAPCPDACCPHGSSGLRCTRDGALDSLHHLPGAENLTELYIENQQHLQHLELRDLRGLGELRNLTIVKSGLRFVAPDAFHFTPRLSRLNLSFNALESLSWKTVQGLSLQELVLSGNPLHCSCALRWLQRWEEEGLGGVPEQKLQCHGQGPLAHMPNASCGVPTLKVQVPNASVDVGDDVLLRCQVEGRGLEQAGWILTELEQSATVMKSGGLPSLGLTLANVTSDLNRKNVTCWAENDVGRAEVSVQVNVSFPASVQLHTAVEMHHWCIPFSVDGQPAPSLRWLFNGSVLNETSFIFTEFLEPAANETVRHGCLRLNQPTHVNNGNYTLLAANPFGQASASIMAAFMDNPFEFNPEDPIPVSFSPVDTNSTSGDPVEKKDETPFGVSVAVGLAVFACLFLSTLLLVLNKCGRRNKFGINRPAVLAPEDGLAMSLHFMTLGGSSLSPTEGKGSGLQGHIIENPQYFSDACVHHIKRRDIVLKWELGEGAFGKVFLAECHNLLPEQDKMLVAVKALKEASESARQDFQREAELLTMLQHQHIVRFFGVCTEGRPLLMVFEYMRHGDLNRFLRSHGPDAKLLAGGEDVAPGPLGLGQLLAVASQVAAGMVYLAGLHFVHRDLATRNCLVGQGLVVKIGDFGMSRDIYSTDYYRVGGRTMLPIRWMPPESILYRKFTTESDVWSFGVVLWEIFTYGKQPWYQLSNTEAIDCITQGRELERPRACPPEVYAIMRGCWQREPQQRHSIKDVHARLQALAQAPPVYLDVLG

**Q.** Which IC50 does the source give for Fc1ccc(F)c([C@H]2CCCN2c2ccn3ncc(-c4nnc(-c5ccc(N6CCOCC6)cc5)[nH]4)c3n2)c1 [Compound 1, (R)-4-(4-(5-(5-(2-(2,5-difluorophenyl)pyrrolidin-1-yl)pyrazolo[1,5-a]pyrimidin-3-yl)-4H-1,2,4-triazol-3-yl)phenyl)morpholine] here?
**A.** Its IC50 is at most 10 nM.

**Q.** Fc1ccc(F)c([C@H]2CCCN2c2ccn3ncc(-c4nnc(C5CCOC5)[nH]4)c3n2)c1 (stereo partly drawn) [Compound 3, 5-((R)-2-(2,5-difluorophenyl)pyrrolidin-1-yl)-3-(5-(tetrahydrofuran-3-yl)-4H-1,2,4-triazol-3-yl)pyrazolo[1,5-a]pyrimidine] was tested. Which IC50 did it give?
**A.** Its IC50 is 10 to 50 nM.

**Q.** With Fc1ccc(F)c([C@H]2CCCN2c2ccn3ncc(-c4nnc(-c5ccnc(N6CCOCC6)c5)[nH]4)c3n2)c1 [Compound 6, (R)-4-(4-(5-(5-(2-(2,5-difluorophenyl)pyrrolidin-1-yl)pyrazolo[1,5-a]pyrimidin-3-yl)-4H-1,2,4-triazol-3-yl)pyridin-2-yl)morpholine] as the compound, how does the IC50 read?
**A.** The IC50 was at most 10 nM.

**Q.** With Fc1ccc(F)c([C@H]2CCCN2c2ccn3ncc(-c4nnc(C5CCN5)[nH]4)c3n2)c1 (stereo partly drawn) [Compound 15, 3-(5-(azetidin-2-yl)-4H-1,2,4-triazol-3-yl)-5-((R)-2-(2,5-difluorophenyl)pyrrolidin-1-yl)pyrazolo[1,5-a]pyrimidine] as the compound, how does the IC50 read?
**A.** Its IC50 is over 50 nM.

**Q.** With OC1CC[C@H](c2nnc(-c3cnn4ccc(N5CCC[C@@H]5c5cc(F)ccc5F)nc34)[nH]2)C1 (stereo partly drawn) [Compound 19, (3S)-3-(5-(5-((R)-2-(2,5-difluorophenyl)pyrrolidin-1-yl)pyrazolo[1,5-a]pyrimidin-3-yl)-4H-1,2,4-triazol-3-yl)cyclopentan-1-ol] as the compound, how does the IC50 read?
**A.** Its IC50 is at most 10 nM.

**Q.** With Cn1c(-c2ccnc(N3CCC(O)CC3)c2)nnc1-c1cnn2ccc(N3CCC[C@@H]3c3cc(F)ccc3F)nc12 [Compound 21, (R)-1-(4-(5-(5-(2-(2,5-difluorophenyl)pyrrolidin-1-yl)pyrazolo[1,5-a]pyrimidin-3-yl)-4-methyl-4H-1,2,4-triazol-3-yl)pyridin-2-yl)piperidin-4-ol] as the compound, how does the IC50 read?
**A.** The IC50 was over 50 nM.

**Q.** How did the IC50 turn out when C[C@](O)(c1nnc(-c2cnn3ccc(N4CCC[C@@H]4c4cc(F)ccc4F)nc23)[nH]1)C(F)(F)F [Compound 25, (S)-2-(5-(5-((R)-2-(2,5-difluorophenyl)pyrrolidin-1-yl)pyrazolo[1,5-a]pyrimidin-3-yl)-4H-1,2,4-triazol-3-yl)-1,1,1-trifluoropropan-2-ol] was run?
**A.** The IC50 was 10 to 50 nM.

**Q.** For OC(c1nnc(-c2cnn3ccc(N4CCC[C@@H]4c4cc(F)ccc4F)nc23)[nH]1)(C(F)(F)F)C(F)(F)F [Compound 27, (R)-2-(5-(5-(2-(2,5-difluorophenyl)pyrrolidin-1-yl)pyrazolo[1,5-a]pyrimidin-3-yl)-4H-1,2,4-triazol-3-yl)-1,1,1,3,3,3-hexafluoropropan-2-ol], which IC50 is on record?
**A.** Its IC50 is over 50 nM.

**Q.** For CCC(O)(c1nnc(-c2cnn3ccc(N4CCC[C@@H]4c4cc(F)ccc4F)nc23)[nH]1)C(F)(F)F (stereo partly drawn) [Compound 28, 2-(5-(5-((R)-2-(2,5-difluorophenyl)pyrrolidin-1-yl)pyrazolo[1,5-a]pyrimidin-3-yl)-4H-1,2,4-triazol-3-yl)-1,1,1-trifluorobutan-2-ol], which IC50 is on record?
**A.** Its IC50 is over 50 nM.

**Q.** With Fc1ccc(F)c([C@H]2CCCN2c2ccn3ncc(-c4nnc(C5CCOCC5)[nH]4)c3n2)c1 [Compound 32, (R)-5-(2-(2,5-difluorophenyl)pyrrolidin-1-yl)-3-(5-(tetrahydro-2H-pyran-4-yl)-4H-1,2,4-triazol-3-yl)pyrazolo[1,5-a]pyrimidine] as the compound, how does the IC50 read?
**A.** Its IC50 is 10 to 50 nM.

**Q.** With OC1CCNC(c2nnc(-c3cnn4ccc(N5CCC[C@@H]5c5cc(F)ccc5F)nc34)[nH]2)C1 (stereo partly drawn) [Compound 35, 2-(5-(5-((R)-2-(2,5-difluorophenyl)pyrrolidin-1-yl)pyrazolo[1,5-a]pyrimidin-3-yl)-4H-1,2,4-triazol-3-yl)piperidin-4-ol] as the compound, how does the IC50 read?
**A.** Its IC50 is 10 to 50 nM.

Same assay, conditions: numeric values; read-out: Trk A Kinase IC50

**Q.** OC1CCN(c2cc(-c3nnc(-c4cnn5ccc(N6CCC[C@@H]6c6cc(F)ccc6F)nc45)[nH]3)ccn2)CC1 [Compound 2, (R)-1-(4-(5-(5-(2-(2,5-difluorophenyl)pyrrolidin-1-yl)pyrazolo[1,5-a]pyrimidin-3-yl)-4H-1,2,4-triazol-3-yl)pyridin-2-yl)piperidin-4-ol] was tested. Which IC50 did it give?
**A.** Its IC50 is 0.43 nM.

**Q.** O[C@H]1CC[C@@H](c2nnc(-c3cnn4ccc(N5CCC[C@@H]5c5cc(F)ccc5F)nc34)[nH]2)CC1 [Compound 5, (1S,4s)-4-(5-(5-((R)-2-(2,5-difluorophenyl)pyrrolidin-1-yl)pyrazolo[1,5-a]pyrimidin-3-yl)-4H-1,2,4-triazol-3-yl)cyclohexan-1-ol] was tested. Which IC50 did it give?
**A.** Its IC50 is 1.8 nM.

**Q.** How did the IC50 turn out when CC(C)(C)OC(=O)N1CCC1c1nnc(-c2cnn3ccc(N4CCC[C@@H]4c4cc(F)ccc4F)nc23)[nH]1 (stereo partly drawn) [Compound 20, tert-butyl 2-(5-(5-((R)-2-(2,5-difluorophenyl)pyrrolidin-1-yl)pyrazolo[1,5-a]pyrimidin-3-yl)-4H-1,2,4-triazol-3-yl)azetidine-1-carboxylate] was run?
**A.** Its IC50 is 47 nM.

**Q.** Which IC50 does the source give for CC(O)(Cc1nnc(-c2cnn3ccc(N4CCC[C@@H]4c4cc(F)ccc4F)nc23)[nH]1)C(F)(F)F (stereo partly drawn) [Compound 29, 3-(5-(5-((R)-2-(2,5-difluorophenyl)pyrrolidin-1-yl)pyrazolo[1,5-a]pyrimidin-3-yl)-4H-1,2,4-triazol-3-yl)-1,1,1-trifluoro-2-methylpropan-2-ol] here?
**A.** Its IC50 is 1.4 nM.

**Q.** How did the IC50 turn out when CC(C)(CO)c1nnc(-c2cnn3ccc(N4CCC[C@@H]4c4cc(F)ccc4F)nc23)[nH]1 [Compound 33, (R)-2-(5-(5-(2-(2,5-difluorophenyl)pyrrolidin-1-yl)pyrazolo[1,5-a]pyrimidin-3-yl)-4H-1,2,4-triazol-3-yl)-2-methylpropan-1-ol] was run?
**A.** Its IC50 is 2.41 nM.

**Q.** OC12CC3CC(C1)CC(c1nnc(-c4cnn5ccc(N6CCC[C@@H]6c6cc(F)ccc6F)nc45)[nH]1)(C3)C2 [Compound 37, (1R,3r)-3-(5-(5-((R)-2-(2,5-difluorophenyl)pyrrolidin-1-yl)pyrazolo[1,5-a]pyrimidin-3-yl)-4H-1,2,4-triazol-3-yl)adamantan-1-ol] was tested. Which IC50 did it give?
**A.** Its IC50 is 1.57 nM.

**Q.** With CN1CCC(c2nnc(-c3cnn4ccc(N5CCC[C@@H]5c5cc(F)ccc5F)nc34)[nH]2)CC1 [Compound 38, (R)-5-(2-(2,5-difluorophenyl)pyrrolidin-1-yl)-3-(5-(1-methylpiperidin-4-yl)-4H-1,2,4-triazol-3-yl)pyrazolo[1,5-a]pyrimidine] as the compound, how does the IC50 read?
**A.** Its IC50 is 11.7 nM.

**Q.** Which IC50 does the source give for Fc1ccc(F)c([C@H]2CCCN2c2ccn3ncc(-c4nnc(C5CCC(F)(F)CC5)[nH]4)c3n2)c1 [Compound 41, (R)-3-(5-(4,4-difluorocyclohexyl)-4H-1,2,4-triazol-3-yl)-5-(2-(2,5-difluorophenyl)pyrrolidin-1-yl)pyrazolo[1,5-a]pyrimidine] here?
**A.** The IC50 was 3.92 nM.

**Q.** O[C@H](c1ccccc1)c1nnc(-c2cnn3ccc(N4CCC[C@@H]4c4cc(F)ccc4F)nc23)[nH]1 [Compound 42, (R)-(5-(5-((R)-2-(2,5-difluorophenyl)pyrrolidin-1-yl)pyrazolo[1,5-a]pyrimidin-3-yl)-4H-1,2,4-triazol-3-yl)(phenyl)methanol] was tested. Which IC50 did it give?
**A.** The IC50 was 3.9 nM.

**Q.** How did the IC50 turn out when OCC12CC(c3nnc(-c4cnn5ccc(N6CCC[C@@H]6c6cc(F)ccc6F)nc45)[nH]3)(C1)C2 [Compound 43, (R)-(3-(5-(5-(2-(2,5-difluorophenyl)pyrrolidin-1-yl)pyrazolo[1,5-a]pyrimidin-3-yl)-4H-1,2,4-triazol-3-yl)bicyclo[1.1.1]pentan-1-yl)methanol] was run?
**A.** Its IC50 is 2.51 nM.

**Q.** Which IC50 does the source give for NC12CC(c3nnc(-c4cnn5ccc(N6CCC[C@@H]6c6cc(F)ccc6F)nc45)[nH]3)(C1)C2 [Compound 44, (R)-3-(5-(5-(2-(2,5-difluorophenyl)pyrrolidin-1-yl)pyrazolo[1,5-a]pyrimidin-3-yl)-4H-1,2,4-triazol-3-yl)bicyclo[1.1.1]pentan-1-amine] here?
**A.** The IC50 was 5.28 nM.

**Q.** With OB1OCc2ccc(-c3nnc(-c4cnn5ccc(N6CCC[C@@H]6c6cc(F)ccc6F)nc45)[nH]3)cc21 [Compound 45, (R)-6-(5-(5-(2-(2,5-difluorophenyl)pyrrolidin-1-yl)pyrazolo[1,5-a]pyrimidin-3-yl)-4H-1,2,4-triazol-3-yl)benzo[c][1,2]oxaborol-1(3H)-ol] as the compound, how does the IC50 read?
**A.** Its IC50 is 0.8 nM.

**Q.** With CCC(O)C(F)(F)c1nnc(-c2cnn3ccc(N4CCC[C@@H]4c4cc(F)ccc4F)nc23)[nH]1 (stereo partly drawn) [Compound 46, 1-(5-(5-((R)-2-(2,5-difluorophenyl)pyrrolidin-1-yl)pyrazolo[1,5-a]pyrimidin-3-yl)-4H-1,2,4-triazol-3-yl)-1,1-difluorobutan-2-ol] as the compound, how does the IC50 read?
**A.** The IC50 was 2.02 nM.
